Experimental data from BindingDB's records for doi:10.1021/acschembio.7b00062 (Philipps-Universität Marburg, 2017).

The molecules below were run against Aldo-keto reductase family 1 member B1 (Homo sapiens, UniProt P15121) (assay: SPR Assay). Conditions: pH 8.5.
Description: The anti-His antibody (His Capture Kit, GE Healthcare) was immobilized on sensor chip CM5 (GE Healthcare), in a Biacore T200 or Biacore S200 instrument, to ∼10000 resonance units (RU) using a standard amine coupling procedure (Amine Coupling Kit, GE Healthcare). His-tagged aldose reductase (ALR2), at a concentration of 100 μg/mL, was captured on the anti-His antibody using dual injection consisting of a 3 min injection of protein followed by a 100 s activation with a mixture (1:1) of 0.2 M N-ethyl-N-(dimethylamino)propylcarbodiimide (EDC) and 50 mM N-hydroxysuccinimide (NHS), and final blocking with an injection of 1.0 Methanolamine (pH 8.5) for 100 s. […] For the interaction analysis, the compound concentrations ranged from 3 to 10000 nM with a 5-fold dilution step, using a single-cycle kinetic approach with three or five concentrations or injections per cycle.

Going from `O=C(O)COc1cc(Cl)ccc1C(=O)NCc1cccc([N+](=O)[O-])c1` [2-(5-chloro-2-{[(3-nitrophenyl)methyl]carbamoyl}phenoxy)acetic acid] to `O=C(O)COc1cc(F)ccc1C(=O)Nc1cccc([N+](=O)[O-])c1` [ALR2 inhibitor, 8], the Kd rises from 14 nM to 23 nM (1.6-fold). The first binds more tightly here.

`NC(=O)[C@@H]1C[C@]2(NC(=O)NC2=O)c2cc(F)ccc2O1` [(2S,4S)-6-fluoro-2,5-dioxo-2,3-dihydrospiro[chromene-4,4-imidazolidine]-2-carboxamide] and `O=C(O)COc1ccc(-c2ccccc2)cc1C(=O)NCc1cccc([N+](=O)[O-])c1` [ALR2 inhibitor, 11] are within 1.5-fold of each other in Kd: 16 nM for the first, 15 nM for the second.
